In series [1] the target is NPC1-like intracellular cholesterol transporter 1 (Rattus norvegicus, UniProt Q6T3U3). The series can be described thus: Displacement of [3H]ezetimibe-glucuronide from NPC1L1 in Sprague-Dawley rat brush border membrane.
Series [2] can be described thus: Half life in rat hepatocytes. In kind it is ADME, cell-based, Liver, Hepatocyte.
For series [3], the system named is Hamster. The series can be described thus: Inhibition of cholesterol absorption in chow fed hamster at 3 mg/kg, po. It counts as functional. Conditions: Cricetinae.
Series [4] in a line: Metabolic stability assessed as half life in rat liver microsomes. In kind it is ADME, Microsome.

The structures appear in SMILES notation.

Chain of NPC1-like intracellular cholesterol transporter 1 (Q6T3U3 21-1331 limits assumed): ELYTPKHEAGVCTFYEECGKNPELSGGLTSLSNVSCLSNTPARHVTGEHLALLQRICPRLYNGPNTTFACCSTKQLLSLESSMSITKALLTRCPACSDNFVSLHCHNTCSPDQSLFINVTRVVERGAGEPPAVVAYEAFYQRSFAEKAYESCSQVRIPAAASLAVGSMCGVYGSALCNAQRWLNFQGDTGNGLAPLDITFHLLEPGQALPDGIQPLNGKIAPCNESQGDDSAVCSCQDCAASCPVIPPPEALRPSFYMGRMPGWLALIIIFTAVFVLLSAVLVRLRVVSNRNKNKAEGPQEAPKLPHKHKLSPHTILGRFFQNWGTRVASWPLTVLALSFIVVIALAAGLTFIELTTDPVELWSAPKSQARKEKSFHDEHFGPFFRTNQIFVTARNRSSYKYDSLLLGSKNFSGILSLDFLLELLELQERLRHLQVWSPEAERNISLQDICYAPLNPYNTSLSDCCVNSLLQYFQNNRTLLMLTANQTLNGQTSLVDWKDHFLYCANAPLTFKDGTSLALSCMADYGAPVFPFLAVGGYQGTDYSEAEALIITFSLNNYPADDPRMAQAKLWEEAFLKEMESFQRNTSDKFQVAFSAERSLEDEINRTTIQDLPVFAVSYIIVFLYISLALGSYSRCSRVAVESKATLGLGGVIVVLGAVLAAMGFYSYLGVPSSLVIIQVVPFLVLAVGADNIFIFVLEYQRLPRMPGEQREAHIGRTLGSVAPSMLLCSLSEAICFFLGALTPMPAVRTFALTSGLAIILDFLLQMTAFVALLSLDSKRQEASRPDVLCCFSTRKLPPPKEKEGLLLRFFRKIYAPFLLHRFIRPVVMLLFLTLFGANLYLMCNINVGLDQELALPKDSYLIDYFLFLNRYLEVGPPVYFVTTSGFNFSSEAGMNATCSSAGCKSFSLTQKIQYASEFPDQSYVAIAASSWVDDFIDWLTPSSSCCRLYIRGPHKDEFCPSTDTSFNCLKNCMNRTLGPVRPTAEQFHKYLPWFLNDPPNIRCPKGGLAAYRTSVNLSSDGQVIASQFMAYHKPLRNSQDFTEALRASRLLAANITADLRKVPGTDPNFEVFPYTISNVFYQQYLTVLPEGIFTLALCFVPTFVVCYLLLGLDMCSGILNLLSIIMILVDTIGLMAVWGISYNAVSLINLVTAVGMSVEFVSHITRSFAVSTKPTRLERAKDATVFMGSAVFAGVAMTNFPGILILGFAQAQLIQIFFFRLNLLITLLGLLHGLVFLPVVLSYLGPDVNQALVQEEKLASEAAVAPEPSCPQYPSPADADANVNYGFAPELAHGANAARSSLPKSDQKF

With `COc1ccc(O)c([C@@H]2[C@@H]([C@H](O)CCc3ccccc3)OC(=O)N2c2cccc(F)c2)c1`, in series [1], the Ki was above 50 µM.
On the same count and under the same terms, for `O=C1O[C@H]([C@H](O)CCc2ccccc2)[C@@H](c2ccc(O)cc2)N1c1ccc(F)cc1` the value was above 50 µM.
In the case of `O=C1O[C@H]([C@H](O)CCc2ccccc2)[C@@H](c2ccc(O)cc2O)N1c1ccc(F)cc1`, the half-life in series [2] amounted to 2.27 h. In series [1], this molecule yielded a Ki of 9.2 µM.
As to `COc1cccc([C@@H]2[C@@H]([C@H](O)CCc3ccccc3)OC(=O)N2c2cccc(F)c2)c1O`, the Ki in series [1] was 5.7 µM.
The same measure, in the same setting: the value for `COc1cccc(OC[C@@H](O)[C@H]2OC(=O)N(c3ccc(F)cc3)[C@@H]2c2ccc(O)cc2)c1` was 15 µM.
The same measure, in the same setting: the value for `O=C1O[C@H]([C@H](O)COc2ccc(Cl)cc2)[C@@H](c2ccc(O)cc2)N1c1ccc(F)cc1` was 49 µM.
`Cc1ccc([C@@H]2[C@@H]([C@H](O)CCc3ccccc3)OC(=O)N2c2cccc(F)c2)c(O)c1`: the affinity in series [1], expressed as Ki, was 16 µM.
With `O=C1O[C@H]([C@H](O)CCc2ccccc2)[C@@H](c2ccc(O)cc2)N1c1ccccc1F`, in series [1], the Ki is above 50 µM.
The same measure, in the same setting: for `O=C(O)[C@H]1O[C@@H](Oc2ccc([C@@H]3[C@@H]([C@H](O)CCc4ccccc4)OC(=O)N3c3ccc(F)cc3)cc2)[C@H](O)[C@@H](O)[C@@H]1O` the value was above 50 µM; for `O=C1O[C@H]([C@H](O)CCc2ccccc2)[C@@H](c2cccc(O)c2)N1c1ccc(F)cc1`, 33 µM.
On the same count and under the same terms, for `COc1ccc(OC[C@@H](O)[C@H]2OC(=O)N(c3ccc(F)cc3)[C@@H]2c2ccc(O)cc2)cc1` the value was above 50 µM; for `O=C1O[C@H](CC[C@H](O)c2ccc(F)cc2)[C@@H](c2ccc(O)cc2)N1c1ccc(F)cc1`, 9.9 µM.
`COc1ccc([C@@H]2[C@@H]([C@H](O)CCc3ccccc3)OC(=O)N2c2ccc(F)cc2)c(O)c1`: the half-life in series [2] was 4.15 h. For the same molecule, in series [1], the Ki is 4.8 µM.
Take `COc1cccc(OC[C@@H](O)[C@H]2OC(=O)N(c3cccc(F)c3)[C@@H]2c2ccc(OC)cc2O)c1`: in series [1], the inhibition constant Ki was found to be 8.7 µM.
Take `COc1ccc([C@@H]2[C@@H]([C@H](O)COc3ccc(F)cc3)OC(=O)N2c2cccc(F)c2)c(O)c1`: the inhibition in vivo at 3 mg/kg in series [3] turned out to be 0%. In series [1], this molecule registered a Ki of 28 µM.
On to `O=C1O[C@H]([C@H](O)CCc2ccccc2)[C@@H](c2ccc(F)cc2O)N1c1cccc(F)c1`, for which the inhibition in vivo at 3 mg/kg in series [3] came to 0%. The molecule also showed a Ki in series [1] of 19 µM.
In series [1], `O=C(NC[C@H]1OC(=O)N(c2ccc(F)cc2)[C@@H]1c1ccc(O)cc1)c1ccc(F)cc1` gave a Ki above 50 µM.
For the molecule `O=C1O[C@H]([C@H](O)CCc2ccccc2)[C@@H](c2cc(F)ccc2O)N1c1cccc(F)c1`, at 3 mg/kg the inhibition in vivo in series [3] was 0%. The same molecule gave a Ki in series [1] of 18 µM.
For `COc1ccc([C@@H]2[C@@H](C(=O)N(C)Cc3ccc(F)cc3)OC(=O)N2c2cccc(F)c2)c(O)c1` the same measures were 0% and 1.4 µM.
In series [1], `COc1ccc([C@@H]2[C@@H](CCCc3ccccc3)OC(=O)N2c2ccc(OC)cc2)cc1` had a Ki above 50 µM.
In the case of `O=C1[C@H](CC[C@H](O)c2ccc(F)cc2)[C@@H](c2ccc(O)cc2)N1c1ccc(F)cc1` [EZETIMIBE], the half-life amounted to 0.158 h in series [4] and 0.717 h in series [2]. The molecule also yielded an inhibition constant Ki in series [1] of 0.2 µM.
`O=C1O[C@H]([C@H](O)CCc2ccccc2)[C@@H](c2ccccc2O)N1c1ccc(F)cc1` yielded an inhibition in vivo at 3 mg/kg in series [3] of 0%. The same molecule registered a Ki in series [1] of 12 µM.
The molecule `O=C1O[C@H]([C@H](O)CNc2ccc(F)cc2)[C@@H](c2ccc(O)cc2)N1c1ccc(F)cc1` returned a Ki in series [1] of 19 µM.
As for `O=C(O)[C@H]1O[C@@H](Oc2ccc([C@@H]3[C@@H](CC[C@H](O)c4ccc(F)cc4)C(=O)N3c3ccc(F)cc3)cc2)[C@H](O)[C@@H](O)[C@@H]1O`, the half-life in series [4] was above 1 h. Besides, in series [1], the affinity, expressed as Ki, was 0.18 µM.
Regarding `O=C(NCc1ccc(F)cc1)[C@H]1OC(=O)N(c2ccc(F)cc2)[C@@H]1c1ccc(O)cc1`, the inhibitory constant (Ki) in series [1] was found to be 30 µM.
Molecule `O=C1O[C@H]([C@H](O)CCc2ccccc2)[C@@H](c2cccc(F)c2O)N1c1cccc(F)c1` registered an inhibition in vivo at 3 mg/kg in series [3] of 0%. Further, the Ki in series [1] was above 50 µM.
`COc1ccc([C@@H]2[C@@H](C(=O)N3CCc4ccccc4C3)OC(=O)N2c2cccc(F)c2)c(O)c1`: the Ki in series [1] was 3.6 µM.
Still for that read-out and setting: for `COc1ccc([C@@H]2[C@@H]([C@H](O)CCc3ccccc3)OC(=O)N2c2cccc(F)c2)c(O)c1` the value was 2.3 µM; for `COc1cccc(CN(C)C(=O)[C@H]2OC(=O)N(c3ccc(F)cc3)[C@@H]2c2ccc(O)cc2)c1`, 11 µM; for `CN(Cc1ccc(F)cc1)C(=O)[C@H]1OC(=O)N(c2ccc(F)cc2)[C@@H]1c1ccc(O)cc1`, 14 µM.
Same read-out and setting: for `COc1ccc([C@@H]2[C@@H]([C@H](O)CCc3ccccc3)OC(=O)N2c2ccc(F)cc2)c(OC)c1` the value was above 50 µM.
With `O=C1O[C@H]([C@H](O)CCc2ccccc2)[C@@H](c2ccc(O)cc2)N1c1cccc(F)c1`, the half-life in series [2] came out at 1.18 h. Further, the Ki in series [1] was 11 µM.
For `O=C1O[C@H]([C@H](O)COc2ccc(F)cc2)[C@@H](c2ccc(O)cc2)N1c1ccc(F)cc1` the same measures were 1.12 h and 28 µM.

For the origin of these results see ChEMBL document CHEMBL1141587, “Substituted oxazolidinones as novel NPC1L1 ligands for the inhibition of cholesterol absorption” (Bioorg Med Chem Lett, 2008).
